In a melting point compilation (Tetko et al.; mined from patent text by program, amines drawn as free bases though some values may be those of a salt):

First: Cc1cc(Cl)ccc1OCC(=O)N1Cc2ccc(C(=O)c3ccc(-c4ccccc4)cc3)n2Cc2ccccc21
Second: O=c1c(-c2ccccc2)c(SCc2ccncc2)oc2cc(OCc3ccccc3)ccc12
The melting point of the first is lower: 102 to 105 °C for the first, 169 to 170 °C for the second.

First: Cc1c(NC(=O)c2ccc(-c3ccccc3)c(F)c2)ccc2cc(CN3CCCCCC3)cnc12
Second: N#Cc1c(-c2cccc(C(=O)NCCO)c2)cc(-c2ccccc2O)nc1NC(=O)c1cccs1
The melting point of the first is lower: 129 to 130 °C for the first, 218 to 219 °C for the second.

First: COc1ccc(Br)cc1-c1ccc2nonc2c1
Second: COc1ccc2c(c1)C(=O)c1c-2cnc2ccccc12
The melting point of the first is lower: 135 to 137 °C for the first, 195 to 196 °C for the second.

First: Cc1cccc(NC2=NCCO2)c1C
Second: Cc1cccc(Nc2cc(Cl)nc(SCC(=O)NN)n2)c1C
The melting point of the first is lower: 112 to 114 °C for the first, 185 to 189 °C for the second.

`O=c1cc(-c2nnn[nH]2)oc2c(COc3ccc(OCc4ccc5ccccc5n4)cc3)cccc12` and `O=c1cc(-c2ccc3ccccc3c2)[nH]c2ccccc12` cannot be ordered by melting point: greater than 250 °C for the first, 290 to 292 °C for the second.

First: COCc1nnc2ccc(-c3ccccc3)nn12
Second: CN(C)CCCC(O)c1ccc(F)cc1-c1ccccc1 (centres undefined)
The melting point of the first is higher: 133 °C for the first, 60 to 62 °C for the second.

First: CC(=O)O[C@@H]1C(=O)N[C@@H]1c1ccccc1 (relative stereo)
Second: CCOC(=O)c1nc[nH]c1-c1ccccc1
The melting point of the first is lower: 150 to 151 °C for the first, 203 to 205 °C for the second.

First: COc1ccc(O[C@@H]2COc3ccc(-c4ccc5cc(F)ccc5n4)cc3[C@@H]2O)cc1 (relative stereo)
Second: COc1ccc(C(=O)c2cc(C(=O)c3ccc(OC)cc3)cc(C(=O)c3ccc(OC)cc3)c2)cc1
The melting point of the first is lower: 151 to 154 °C for the first, 179 to 183 °C for the second.

First: O=C(c1ccc(Nc2ccnc3cc(C(F)(F)F)ccc23)cc1)N1CCC(Sc2ccc(F)cc2)CC1
Second: Cc1cnc(Oc2cccc(C(F)(F)F)c2)c(C(=O)Nc2ccc(F)cc2F)c1
The melting point of the first is higher: 211 to 214 °C for the first, 133 to 135 °C for the second.

First: C#CCC(C(=CCl)c1cccnc1)c1ccc(Cl)cc1Cl (centres undefined)
Second: N#CC(Cl)Cc1ccc(Cl)cc1C(=O)c1ccccc1 (centres undefined)
The melting point of the first is higher: 87 to 88 °C for the first, 69 to 71 °C for the second.

First: CC(C)(C)[C@H]1N(c2ccc(C#N)c3ccccc23)C(=O)[C@@H]2C[C@@H](O)CN21
Second: Cn1cc(C2=C(c3c4n(c5ccccc35)CCCC(CO)C4)C(=O)NC2=O)c2ccccc21 (centres undefined)
The melting point of the first is lower: 155 to 157 °C for the first, 268 to 270 °C for the second.

First: COc1ccc(Cl)nc1N
Second: COc1ccc(Cl)cc1C(=O)CCC(=O)O
The melting point of the first is higher: 134 to 135 °C for the first, 113 to 115 °C for the second.

Compared with `FC(F)(F)c1ccccc1CC[C@H]1CN(Cc2ccccc2)CCN1Cc1ccccc1`, `COC(=O)c1ccc(COC(=O)Nc2ccc(-c3ccccc3)n(CC(=O)NC(Cc3ccccc3)C(=O)C(F)(F)F)c2=O)cc1` (centres undefined) is higher in melting point: 77 to 82 °C for the first, 186 to 189 °C for the second.

First: Cc1nc2cccc(OCC(C)(C)C(=O)NC3CCC3)c2c(N)c1C(=O)O
Second: COC(=O)COc1cccc2c(CCBr)c(C)oc12
The melting point of the first is higher: 183 to 187 °C for the first, 146 to 148 °C for the second.

First: O=c1[nH]ncc2[nH]c(-c3ccc(OC(F)F)c(OC4CC4)c3)c(CO)c12
Second: Cc1c(-c2ccc(Cl)cc2F)sc2nc(N)[nH]c(=O)c12
The melting point of the first is lower: 190 to 191 °C for the first, 320 to 340 °C for the second.

First: COC(=O)Nc1ccc(CCc2cc(OC)ccc2OC)cc1C(=O)OC
Second: COc1ccc(OCC2CO2)c(C(=O)Nc2cccc3[nH]ccc23)c1 (centres undefined)
The melting point of the first is lower: 80 to 82 °C for the first, 122 °C for the second.

First: CCCCc1nc(Cl)c(CC(=O)OC)n1Cc1ccc(NS(=O)(=O)C(F)(F)F)cc1
Second: CC(C)(CNc1ccc(C(=O)CCCC(=O)O)cc1)[N+](=O)[O-]
The melting point of the first is lower: 154 to 157 °C for the first, 160 to 161 °C for the second.

First: COc1cc2c(cc1OC(C)=O)CCC1C3=CC=C(OC(C)=O)C3(C)CCC21 (centres undefined)
Second: CCC(=O)Oc1c(OC)cc(C)c(C(=O)c2c(OC)ccc(Cl)c2C)c1OC
The melting point of the first is higher: 191 to 194 °C for the first, 150 to 151 °C for the second.

First: CCOCc1nc2c(N)nc3cc(-c4cccnc4)ccc3c2n1CC(O)CO (centres undefined)
Second: CCCCc1nc2c(N)nc3cccnc3c2n1CCNC(=O)C1CCC(=O)O1 (centres undefined)
The melting point of the first is higher: 202 to 204 °C for the first, 153 to 154 °C for the second.

Compared with `COCCN1CCN(c2cccc(-c3nc4cc(OC)cc(OC)c4c(=O)[nH]3)n2)CC1`, `NC(=O)N1CCSC1c1ccccc1OCCN1CCN(c2cccc(F)c2)CC1` (centres undefined) is higher in melting point: 99 to 101 °C for the first, 142 to 143 °C for the second.

First: CC(C)Nc1cc(Cl)nnc1NN
Second: CC(=O)Nc1ccc(C=NNC(N)=S)cc1Cl
The melting point of the first is lower: 132 to 135 °C for the first, 235 to 238 °C for the second.

First: CC(C)(O)c1cc(C#N)ccc1O
Second: C=CCCC(C#N)(C#N)Cc1ccc(C#N)cc1
The melting point of the first is higher: 129 to 130 °C for the first, 109 °C for the second.

Compared with `O=Cc1c[nH]c2c(F)cccc12`, `O=c1[nH]c2ccc(Cl)cc2c(=O)o1` is lower in melting point: 203 to 205 °C for the first, 200 °C for the second.

First: ClCCCc1nnnn1C1CCCCC1
Second: C(=C\C1CCCCC1)/c1nc(COc2ccc(CCCn3ccnc3)cc2)co1
The melting point of the first is higher: 82 to 85 °C for the first, 62 to 63 °C for the second.

First: CCCc1nc2cnc3ccccc3c2n1CCC1(O)CCOCC1
Second: CCCCSc1cnc2c(c1)CCC(c1ccc(Cl)c(Cl)c1)O2 (centres undefined)
The melting point of the first is higher: 186 to 188 °C for the first, 59.5 to 61 °C for the second.

First: CCSc1cc(N)c([N+](=O)[O-])cc1N
Second: CCSc1c(N)cnc2cc(Cl)ccc12
The melting point of the first is higher: 142 °C for the first, 105 to 106 °C for the second.

First: O=C1C(=CO)C(c2ccccc2[N+](=O)[O-])=NN1c1ccc(Cl)cc1
Second: O=C(O)CS(=O)(=O)c1ccc2c(-c3ccc(Cl)cc3)noc2c1
The melting point of the first is lower: 155 to 157 °C for the first, 201 to 203 °C for the second.

Compared with `CC1(C)C(C=C(Cl)Cl)C1C(=O)O` (centres undefined), `O=C(O)CC(=O)N1CCSCC1` is higher in melting point: 86 °C for the first, 119 to 120 °C for the second.

First: CNc1nc2ccncc2[nH]1
Second: Cc1nnc(SCc2ccccc2)s1
The melting point of the first is higher: 256 °C for the first, 60 to 63 °C for the second.

First: CCCCCCN1C(=O)C(=CC(=O)O)SC1=Nc1ccccc1
Second: CCCCCCCC(=O)N(C)Cc1cccc(-c2ccc(Nc3ccccc3C(=O)O)cc2)c1
The melting point of the first is higher: 145 to 146 °C for the first, 45 °C for the second.

First: COc1cccc2c1C13CCN(C)C(C2)C1(O)CCC(=O)C3 (centres undefined)
Second: CN1C(=O)Cc2ccccc21
The melting point of the first is higher: 191 to 193 °C for the first, 83 to 84.5 °C for the second.

First: O=c1ccccn1[C@@H]1c2cc(C(F)(F)C(F)(F)F)ccc2OC(CF)(CF)[C@H]1O (relative stereo)
Second: O=C(NCc1cccc(C(F)(F)F)c1)c1sc2ccccc2c1O
The melting point of the first is higher: 162 to 164 °C for the first, 139 to 141 °C for the second.

First: Clc1cc(Cl)c2ocnc2c1
Second: O=C1CCCC(=O)N1c1cc(Cl)cc(Cl)c1
The melting point of the first is lower: 98 to 99 °C for the first, 172 to 174 °C for the second.

First: CN(CSC(C)(C)CC(C)(C)C)C(=O)Nc1cccc(C(F)(F)F)c1
Second: O=C(NC(=O)c1c(F)cccc1F)Nc1ccc(SC(F)(F)F)cc1F
The melting point of the first is lower: 52 to 54 °C for the first, 173 to 175 °C for the second.

Compared with `Cc1nc[nH]c1CSCCN=C(NC#N)NCCO`, `CN=C(NC#N)NCCSCc1[nH]cnc1Br` is lower in melting point: 146 to 147 °C for the first, 144 to 146 °C for the second.

Going from `FC(F)(F)c1c(CNC2Cc3ccccc3C2)ccn2c(CC3CC3)nnc12` to `O=C(N[C@H]1CC[C@H](CCN2CCN(c3nccc4c3CCO4)CC2)CC1)c1ccc(Cl)cc1Cl`, the melting point falls from greater than 300 °C to 204 °C.

Compared with `CC1(C)N=C(Oc2ccccn2)c2cc(F)ccc2O1`, `Cc1noc(-c2ncn3c2CN(C)C(=O)c2cc(F)ccc2-3)n1` is higher in melting point: 114 °C for the first, 244 to 245 °C for the second.

First: CCc1cc(C)cc(CC)c1C1=C(OCc2ccccc2)C2CC(C=CC(C)=O)CC2C1=O (centres undefined)
Second: CCC(=O)Oc1cc(C(C)C)ccc1C1(OC(=O)CC)C(=O)c2ccccc2C1=O
The melting point of the first is lower: 60 °C for the first, 123 to 125 °C for the second.

Going from `CC(C)(C)OC(=O)N1C[C@@H]2CC1CN2c1cncc(Br)c1` to `CC(=O)Oc1c(-c2ccc(=O)[nH]n2)cc(Br)c(C)c1Br`, the melting point rises from 149 °C to 220 °C.

First: CN(C)C(=O)Nc1ccc(N2CCOCC2)cc1
Second: CCOC(=O)c1nn(-c2ccc(N(C)C)cc2)c(=O)c2c(N)scc12
The melting point of the first is lower: 199 to 204 °C for the first, 211 to 213 °C for the second.

First: CSc1ccc(-c2csc(NC(C)=O)n2)cc1
Second: CCCOC(=O)c1cc(-c2ccc(Cl)cc2)cnc1C
The melting point of the first is higher: 235 to 236 °C for the first, 54 to 57 °C for the second.

First: COc1ccc(-c2c3ccccc3cc3sc4ccccc4c23)cc1I
Second: O=C(Nc1nc(=O)n(S(=O)(=O)c2ccccc2)cc1F)c1ccccc1
The melting point of the first is higher: 274 to 275 °C for the first, 150 to 151 °C for the second.

First: CC(C)(C)c1cc(SC2CC(=O)N(c3ccccc3N3C(=O)CC(Sc4cc(C(C)(C)C)c(O)c(C(C)(C)C)c4)C3=O)C2=O)cc(C(C)(C)C)c1O (centres undefined)
Second: Cc1oc2c(C)c(C)c(NCc3ccc(F)cc3)c(C)c2c1-c1ccc(C(C)C)cc1
The melting point of the first is higher: 128 to 133 °C for the first, 95 to 97 °C for the second.

First: Fc1cc(CC2(Cc3ccnc(F)c3)c3cccnc3-c3sccc32)ccn1
Second: O=[N+]([O-])c1cc([N+](=O)[O-])c(Nc2ccc3ccccc3c2[N+](=O)[O-])c(C(F)(F)F)c1
The melting point of the first is lower: 157 to 159 °C for the first, 213 to 215 °C for the second.

First: O=C(N[C@H]1CCCNC1=O)c1cc(F)ccc1F
Second: CCCCCCCCCCC(=O)N[C@H]1CCCNC(=O)C1
The melting point of the first is higher: 140 to 142 °C for the first, 91 to 92 °C for the second.

First: O=S1c2ccccc2Sc2ccc(-c3nnn[nH]3)cc21 (centres undefined)
Second: Cc1cc(-c2ccc(F)cc2)n(-c2ccc(S(N)(=O)=O)cc2)c1
The melting point of the first is higher: 200 to 204 °C for the first, 168 to 170 °C for the second.

Compared with `N#CCCN(CCC#N)CC(=O)O`, `O=C(O)C(=O)c1ccc(OCCOc2cccc(F)c2)cc1` is higher in melting point: 73 °C for the first, 108 to 109 °C for the second.

Compared with `O=C(O)CN1C(=O)C(=Cc2ccc(O)cc2)SC1=S`, `O=c1ccoc(CO)c1O` is lower in melting point: greater than 300 °C for the first, 154 to 156 °C for the second.

Compared with `O=C(OCC(Cl)(Cl)Cl)N1CCC(C2c3cccc4c3N(CC4)c3ccccc3N2C(=O)OCC(Cl)(Cl)Cl)CC1` (centres undefined), `O=C(Nc1cccnn1)N1CCN(c2cc(-c3ccccc3F)ncn2)CC1` is higher in melting point: 202 to 205 °C for the first, 207 to 208 °C for the second.

First: CCC(CC)Oc1cc(C)nc2c1COCN2c1c(C)cc(Br)cc1C
Second: Cc1cc(C)c2c(-c3coc4cc(C)cc(C)c34)coc2c1
The melting point of the first is higher: 206 to 209 °C for the first, 98 to 100 °C for the second.

First: Brc1cn2cncc2s1
Second: Cn1ccc(=O)c(CO)c1
The melting point of the first is lower: 77 to 78 °C for the first, 185 to 186 °C for the second.

Compared with `N#Cc1c(CNC(=O)c2ccc(OC(F)(F)F)cc2)nn(-c2ccc(Cl)cc2Cl)c1-c1ccc(Cl)cc1`, `CCc1c(Oc2c(Cl)cc(C(F)(F)F)cc2Cl)n[nH]c1C` is higher in melting point: 180 °C for the first, 215 to 218 °C for the second.
